We go through two molecules from patent US8436187B2, “1-heterocyclylsulfonyl, 3-aminomethyl, 5- (hetero-) aryl substituted 1-H-pyrrole derivatives as acid secretion inhibitors” (Takeda Pharmaceutical Company Limited, priority 2005, dated 2013).

The target in data set [1] is T1, proton, potassium-adenosine triphosphatase (H+,K+-ATPase) (Sus scrofa, UniProt P19156).
T1 construct: The obtained microsomal fraction was used as a proton, potassium—adenosine triphosphatase standard product; from tissue; host or cells: swine stomach, gastric mucous membrane microsomal fraction
T1 sequence (P19156 2-1034 limits assumed): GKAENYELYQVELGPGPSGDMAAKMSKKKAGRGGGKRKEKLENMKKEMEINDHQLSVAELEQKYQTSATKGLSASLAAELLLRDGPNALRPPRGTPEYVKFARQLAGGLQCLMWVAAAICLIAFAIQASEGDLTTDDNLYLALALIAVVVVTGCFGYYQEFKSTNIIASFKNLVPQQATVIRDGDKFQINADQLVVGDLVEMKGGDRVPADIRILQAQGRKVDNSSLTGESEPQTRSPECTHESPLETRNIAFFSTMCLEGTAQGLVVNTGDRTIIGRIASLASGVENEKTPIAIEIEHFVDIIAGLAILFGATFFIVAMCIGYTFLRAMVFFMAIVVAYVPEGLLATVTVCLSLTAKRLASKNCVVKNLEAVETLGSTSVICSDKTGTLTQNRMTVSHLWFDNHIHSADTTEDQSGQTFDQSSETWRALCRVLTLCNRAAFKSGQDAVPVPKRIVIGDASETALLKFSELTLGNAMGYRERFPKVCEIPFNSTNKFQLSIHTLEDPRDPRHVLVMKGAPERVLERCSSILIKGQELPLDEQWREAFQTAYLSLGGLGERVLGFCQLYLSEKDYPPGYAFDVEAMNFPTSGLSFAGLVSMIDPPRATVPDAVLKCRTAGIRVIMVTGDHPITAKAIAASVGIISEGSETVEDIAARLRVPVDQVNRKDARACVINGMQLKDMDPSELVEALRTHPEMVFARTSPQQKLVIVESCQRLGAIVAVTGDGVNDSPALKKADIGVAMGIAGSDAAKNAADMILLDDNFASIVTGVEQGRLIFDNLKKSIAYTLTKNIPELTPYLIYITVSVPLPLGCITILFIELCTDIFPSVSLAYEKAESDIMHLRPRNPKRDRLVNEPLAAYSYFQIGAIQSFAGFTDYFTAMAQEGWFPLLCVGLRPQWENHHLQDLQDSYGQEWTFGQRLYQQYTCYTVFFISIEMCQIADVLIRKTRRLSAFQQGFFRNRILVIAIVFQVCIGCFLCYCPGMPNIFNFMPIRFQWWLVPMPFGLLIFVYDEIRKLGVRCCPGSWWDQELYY
T1 sequence (P18434 whole entry partner): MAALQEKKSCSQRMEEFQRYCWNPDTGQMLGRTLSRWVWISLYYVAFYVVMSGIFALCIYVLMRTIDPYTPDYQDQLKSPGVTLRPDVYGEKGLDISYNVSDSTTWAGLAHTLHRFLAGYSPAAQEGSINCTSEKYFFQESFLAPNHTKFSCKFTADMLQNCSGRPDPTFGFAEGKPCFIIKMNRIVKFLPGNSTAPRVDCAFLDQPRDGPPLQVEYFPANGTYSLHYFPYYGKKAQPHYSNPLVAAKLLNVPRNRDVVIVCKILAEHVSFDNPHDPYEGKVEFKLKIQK
In words: H+,K+-ATPase inhibitory activity test. The class given is biochemical. To be noted: swine gastric mucous membrane microsomal fraction; pH 6.5, 37° C. The method, then:
According to the method [Biochim. Biophys. Acta, 728, 31 (1983)] of Wallmark et al., a gastric mucous membrane microsomal fraction was prepared from the stomach of swine. First, the stomach was removed, washed with tap water, immersed in 3 mol/L brine, and the surface of the mucous membrane was wiped with a paper towel. The gastric mucous membrane was detached, chopped, and homogenized in a 0.25 mol/L saccharose solution (pH 6.8) containing 1 mmol/L EDTA and 10 mmol/L tris-hydrochloric acid using polytron (Kinematica). The obtained homogenate was centrifuged at 20,000×g for 30 min and the supernatant was centrifuged at 100,000×g for 90 min. The precipitate was suspended in 0.25 mol/L saccharose solution, superimposed on a 0.25 mol/L saccharose solution containing 7.5% Ficoll, and centrifuged at 100,000×g for 5 hr. […]
To 40 μL of a 50 mmol/L HEPES-tris buffer (5 mmol/L magnesium chloride, 10 mmol/L potassium chloride, 10 […], pH=6.5) containing 2.5 μg/mL (based on the protein concentration) of the enzyme standard product was added a test compound (5 μL) dissolved in a 10% aqueous dimethyl sulfoxide solution, and the mixture was incubated at 37° C. for 30 min. […] After allowing to stand at room temperature for 15 min, the resulting reaction product of inorganic phosphorus with malachite green was colorimetrically determined at a wavelength of 610 nm. […]

For data set [2], the system named is Human liver cancer-derived cell line HepG2. In words: intracellular ATP content in HepG2 cells (ATPLite). The class given is cell-based. To be noted: HepG2, culture for one day, relative value to control (without drug), n≧3, average. The protocol: Human liver cancer-derived cell line HepG2 (ATCC No. HB-8065) was passaged using Dulbecco's Modified Eagle medium (DMEM; Invitrogen) containing 10% fetal bovine serum (FBS; TRACE SCIENTIFIC LTD.), 1 mmol/L sodium pyruvate (Invitrogen), 2 mmol/L L-glutamine (Invitrogen), 50 IU/mL penicillin (Invitrogen) and 50 μg/mL streptomycin (Invitrogen) at 5% CO2. 37° C. The test reagent was prepared with DMSO to 10 mM, and further diluted with DMEM medium containing 0.5% FBS, 1 mmol/L sodium pyruvate, 2 mmol/L L-glutamine, 50 IU/mL penicillin and 50 μg/mL streptomycin to a final concentration of DMSO of 0.1%. HepG2 (2×10^4 cells/well) was cultured on a 96 well white plate (Costar) with the test reagent at 5% CO2, 37° C. After culture for one day, the intracellular ATP content was measured using ATPLite™ (PerkinElmer Life Sciences). The results are shown in Table 24 (n≧3, average value±SD) as a relative value (%) to control (without addition of drug) at 30 μM.

As to `CNCc1cc(-c2ccccc2)n(S(=O)(=O)c2ccc(C)nc2)c1.Cl.Cl` [Example 24, N-methyl-1-{1-[(6-methylpyridin-3-yl)sulfonyl]-5-phenyl-1H-pyrrol-3-yl}methanamine dihydrochloride], in data set [1], the IC50 came out at 0.034 µM. Also, the “ATP content (%, 30 μM)” value in data set [2] came out at 76.5%.
`CNCc1cc(-c2ccc(Cl)cc2F)n(S(=O)(=O)c2cccnc2)c1.Cl.Cl` [Example 34, 1-[5-(4-chloro-2-fluorophenyl)-1-(pyridin-3-ylsulfonyl)-1H-pyrrol-3-yl]-N-methylmethanamine dihydrochloride] returned an IC50 in data set [1] of 0.0089 µM. In data set [2], the “ATP content (%, 30 μM)” value is reported as 53.6%.
